For orientation: EC50 means the concentration needed to bring the measured effect to its halfway point. Higher therefore signals a less potent agent.

Here are results for one molecule from ChEMBL document CHEMBL1133247, “Synthesis of novel ferrocenyl sugars and their antimalarial activities” (Bioorg Med Chem Lett, 2000).

The test system of one assay is FM3A. The experiment in a line: In vitro cytotoxic activity against mouse mammary tumor FM3A cells. It is filed as functional, cell-based.
In another assay the test system is Plasmodium falciparum. The assay can be described thus: In vitro antimalarial activity against chloroquine-sensitive Plasmodium falciparum FCR3. It is filed as functional, organism-based.
The nature of assay [1]: Selectivity is the ratio of mean EC50 value against […] cells to that of EC50 value against Plasmodium falciparum. Type of assay: functional.

For `C=C[C@H]1CN2CC[C@H]1C[C@H]2[C@H](O)c1ccnc2ccc(OC)cc12` [QUININE], the EC50 in the assay on FM3A was 100 µM; in the assay with Plasmodium falciparum, 0.11 µM. Also, the Selectivity in assay [1] is on record as 910.
